Results on two molecules are retold here after patent publication US20060188866A1, “Diaminophenothiazine compositions and uses thereof” (Children's Hospital Oakland Research Institute, priority 2005, published 2006).

The conditions of assay [1]: 300 mg/day for one year; cited from earlier work.
Assay [2] has as its system IMR90 cells. The experiment in a line: Replicative life span of IMR90 cells (population doubling level).
A further assay has as its system mitochondrial complex IV. As to the kind of experiment: Level of mitochondrial complex IV in IMR90 cells (subunit II antibody, western blotting). On the technique in general: In western blotting, separated proteins are transferred to a membrane and probed.
For assay [3] the following is noted: 65 mg three times a day; cited from earlier work.
Assay [4] has as its system IMR90 cells. The experiment in a line: H2O2-induced senescence of methylene blue-treated IMR90 cells. As to conditions: continuous 100 nM; 10 μM H2O2. In kind it is cell-based, human. On the procedure:
In another experiment, the effect of hydrogen peroxide (H2O2) on senescence of methylene blue-treated cells was tested. IMR90 cells were seeded at an initial density of 0.5×10^6/dish and grown for two weeks in the presence of methylene blue prior to H2O2 treatment. Thereafter, cells were harvested weekly, counted, and seeded with or without methylene blue and/or 10 μM H2O2. Cells that were treated with hydrogen peroxide without methylene blue treatment had accelerated senescence. The H2O2-induced senescence was prevented when these cells were continuously treated with 100 nM methylene blue.

For assay [5] the following is noted: rats; injected 1 mg/kg; cited from earlier work.

`CN(C)c1ccc2nc3ccc(=[N+](C)C)cc-3sc2c1` [methylene blue]: the “depression compared with 15 mg/day placebo” value in assay [1] is on record as “significantly less depressed”. Also, the “increase in PDL” value in the assay with IMR90 cells [2] (IMR90 cells seeded in 5% oxygen) is reported as 10-15. Moreover, in the assay with IMR90 cells [2] (IMR90 cells seeded in air), the delay of senescence is given as 25-30 population doublings and the “optimal concentration for delaying senescence” value was in the range of 10 to 100 nM. For the same molecule, in the assay on mitochondrial complex IV (1000 nM, IMR90 cells), the “effect on complex IV” value is “caused removal of complex IV from the mitochondria”. In addition, in the assay with mitochondrial complex IV (IMR90 cells), the “increase in level of complex IV above age-matched controls” value is given as “approximately 30%”. For the same molecule, the “management of chronic renal calculous disease” value in assay [3] is listed as “useful”. Further, in the assay on IMR90 cells [4], the H2O2-induced senescence result is “prevented”. In addition, in assay [5], the brain oxidative metabolism result is given as “improved” and the memory retention result is “improved”.
Consider `Nc1ccc2nc3ccc(N)cc3[s+]c2c1` [thionine], for which, in the assay on IMR90 cells [2] (100 nM, IMR90 cells), the “effect on senescence (replicative life span)” value was “effective”. The “effect on level of complex IV” value with mitochondrial complex IV (IMR90 cells after treatment) is listed as “increase in complex IV”.
